# In patent publication US12577252B2, “Drug for the treatment of diseases caused by bacteria” (priority 2020, dated 2026):
# Key:
# H. influenzae [1] = assay: MIC of 1a and its combinations with antimicrobials, serial dilutions; format: cell-based, Haemophilus influenzae; settings: liquid nutrient medium, substance alone
# Method: We used a strain of H. influenzae grown on a liquid nutrient medium. The minimum inhibitory concentration was determined by the method of serial dilutions.
# B. subtilis = assay: MIC by serial dilution (CLSI), firmicutes bacteria; format: cell-based, Bacillus subtilis; settings: fresh clinical isolate
# Method: (§1) Determination of the antimicrobial activity of substances was carried out on dense and liquid nutrient media. To assess the minimum inhibitory concentration (MIC), the serial dilution method was used, according to the recommendations of CLSI (Clinical Laboratories and Standards Institute, formerly National Committee for Clinical Laboratory Standards) (Clinical Laboratories and Standards Institute. Methods for Dilution Antimicrobial Susceptibility Tests for Bacteria That Grow Aerobically; Approved Standard—Seventh Edition Document M7-A7 CLSI, Wayne, Pa., 2006; Clinical Laboratories and Standards Institute).
# (§2) The assessment of the antimicrobial activity of substances against firmicute bacteria was performed on fresh clinical isolates of strains of Streptococcus pyogenes, Streptococcus mitis, Bacillus subtilis, Bacillus cereus, Corynebacterium ulcerans, Micrococcus luteus.
# [2] = system: Escherichia coli ATCC29592; assay: MIC, gracilicutes and wall-less bacteria; format: cell-based; settings: E. coli ATCC29592
# Method: as §1, with “Institute). The study of the effect on strains was performed on fresh clinical isolates of Haemophilus influenzae, Neisseria meningitides, Ureaplasma urealyticum strains, as well as on the Escherichia coli ATCC29592 strain.” for “Institute).”
# M. lutteus = assay: MIC by serial dilution (CLSI), firmicutes bacteria; format: cell-based, Micrococcus luteus; settings: fresh clinical isolate
# Method: as §1, §2
# S. mitis = assay: MIC by serial dilution (CLSI), firmicutes bacteria; format: cell-based, Streptococcus mitis; settings: fresh clinical isolate
# Method: as §1, §2
# U. urealyticum = assay: MIC, gracilicutes and wall-less bacteria; format: cell-based, Ureaplasma urealyticum; settings: fresh clinical isolate
# Method: as §1, with “Institute). The study of the effect on strains was performed on fresh clinical isolates of Haemophilus influenzae, Neisseria meningitides, Ureaplasma urealyticum strains, as well as on the Escherichia coli ATCC29592 strain.” for “Institute).”
# N. meningitides = assay: MIC, gracilicutes and wall-less bacteria; format: cell-based, Neisseria meningitides; settings: fresh clinical isolate
# Method: as §1, with “Institute). The study of the effect on strains was performed on fresh clinical isolates of Haemophilus influenzae, Neisseria meningitides, Ureaplasma urealyticum strains, as well as on the Escherichia coli ATCC29592 strain.” for “Institute).”
# C. ulcerans = assay: MIC by serial dilution (CLSI), firmicutes bacteria; format: cell-based, Corynebacterium ulcerans; settings: fresh clinical isolate
# Method: as §1, §2
# H. influenzae [3] = assay: MIC, gracilicutes and wall-less bacteria; format: cell-based, Haemophilus influenzae; settings: fresh clinical isolate, Table 2
# Method: as §1, with “Institute). The study of the effect on strains was performed on fresh clinical isolates of Haemophilus influenzae, Neisseria meningitides, Ureaplasma urealyticum strains, as well as on the Escherichia coli ATCC29592 strain.” for “Institute).”
# B. cereus = assay: MIC by serial dilution (CLSI), firmicutes bacteria; format: cell-based, Bacillus cereus; settings: fresh clinical isolate
# Method: as §1, §2
# L. monocytogenes = assay: MIC by serial dilution (CLSI), firmicutes bacteria; format: cell-based
# S pyogenes = assay: MIC by serial dilution (CLSI), firmicutes bacteria; format: cell-based, Streptococcus pyogenes; settings: fresh clinical isolate
# Method: as §1, §2
# S. aureus ATCC 29213 = assay: MIC by serial dilution (CLSI), S. aureus ATCC 29213; format: cell-based, Staphylococcus aureus
# [4] = system: S. aureus ANCC29213 biofilms; assay: Survival of bacteria in biofilms (CFU count); format: cell-based, Staphylococcus aureus; settings: 10 μg/ml; for Number of CFU: 24 h biofilm, incubated 24 hours at 37° C.
# Method: S. aureus ANCC29213 bacteria were grown in a 24-well plateau in LB medium for 24 hours at 37° C. After that, Compound 1a and lincomycin (8 wells for each preparation and control without preparations) were added to the wells at final concentrations of 10 μg/ml and incubated for 24 hours at 37° C. After incubation, the medium was removed, the biofilms were washed with a sterile solution of isotonic sodium chloride, the biofilms were removed from the bottom of the wells, resuspended in isotonic sodium chloride solution, and the number of colony forming units (CFU) was determined by the method of serial dilutions.
# S. pyogenes = assay: Clinical treatment of tonsillitis, eradication of the pathogen; format: in vivo, Streptococcus pyogenes; settings: for Eradication, %: S. pyogenes tonsillitis patients
# Method: (§3) This pathology was chosen by us as one of the above lists to confirm the effectiveness and practical applicability of the claimed compound. The study was performed on two groups of patients, totaling 138 people, who received the drug enterally twice a day at doses from 500 mg to 2000 mg. The compound was administered as a pharmaceutical composition containing Compound 1a in acetate form in an isotonic solution of a pharmaceutically acceptable sodium chloride carrier.
# [5] = system: Staphylococcus aureus ATCC 38591; assay: Acute generalized infection in C57BL6 mice, death of mice; format: in vivo; settings: 10 mice
# Method: To study the chemotherapeutic efficacy, a model of acute generalized infection in small animals was used. C57BL6 mice were intraperitoneally infected with Staphylococcus aureus ATCC 38591 at a dose of 1×10^8 microbial cells. The infectious dose was established in preliminary studies. Mice infected with the same dose of microbial culture but not treated served as controls.
# The preparations were dissolved in an isotonic sodium chloride solution and substance 1a or Lincomycin was administered. 2 hours after infection, the drugs were administered orally daily at doses of 10 to 100 mg/kg, 2 times a day.
# The death of mice was taken into account daily for 7 days.
# S. aureus SA85 = assay: MIC, S. aureus strains with multiple resistance; format: cell-based, Staphylococcus aureus; settings: SA85, VRSA strain
# Method: as §1
# (§4) The study of the effect of Compound 1a on strains with multiple resistance to existing antibiotics was performed on fresh clinical isolates of strains: S. aureus VT-V-18, S. aureus VT-E-25 S. aureus VT-A-199 and S. aureus VT-P-82, as well as S. aureus strain American Type Culture Collection (Rockville, Md.) and strains S. aureus SA77 and S. aureus SA85,
# S. aureus SA77 = assay: MIC, S. aureus strains with multiple resistance; format: cell-based, Staphylococcus aureus; settings: SA77, VRSA strain
# Method: as §1, §4
# S. aureus VT-A-199 = assay: MIC, S. aureus strains with multiple resistance; format: cell-based, Staphylococcus aureus; settings: VT-A-199, MRSA strain, clinical isolate
# Method: as §1, §4
# S. aureus VT-E-25 = assay: MIC, S. aureus strains with multiple resistance; format: cell-based, Staphylococcus aureus; settings: VT-E-25, MRSA strain, clinical isolate
# Method: as §1, §4
# S. aureus VT-V-18 = assay: MIC, S. aureus strains with multiple resistance; format: cell-based, Staphylococcus aureus; settings: VT-V-18, MRSA strain, clinical isolate
# Method: as §1, §4
# S. aureus VT-P-82 = assay: MIC, S. aureus strains with multiple resistance; format: cell-based, Staphylococcus aureus; settings: VT-P-82, MRSA strain, clinical isolate
# Method: as §1, §4
# [6] = system: various strains of S. aureus; assay: Effects on various strains of S. aureus (MRSA, VRSA, MSSA), overall; format: cell-based, Staphylococcus aureus; settings: S. aureus strains of Table 3
# Method: as §1, §4
# S. aureus = assay: Clinical treatment of tonsillitis, eradication of the pathogen; format: in vivo, Staphylococcus aureus; settings: for Eradication, %: S. aureus tonsillitis patients
# Method: as §3
# [7] = system: methicillin- and vancomycin-resistant strains of Staphylococcus aureus and Streptococcus spp; settings: literature statement; cited from earlier work
# [8] = Haemophilus influenzae, read-out: MIC
# [9] = 10 mg/kg orally 2 times a day, day 2
# [10] = 10 mg/kg orally 2 times a day, day 4
# [11] = 20 mg/kg orally 2 times a day, day 3
# [12] = 20 mg/kg orally 2 times a day, day 4
smiles,measurement,setting,value
C[C@H]1COc2c(N3CCN(C)CC3)c(F)cc3c(=O)c(C(=O)O)cn1c23 [Levofloxacin],MIC,H. influenzae [1]; [8],0.05 mg/L
CN(C)[C@@H]1C(O)=C(C(N)=O)C(=O)[C@@]2(O)C(O)=C3C(=O)c4c(O)cccc4[C@@](C)(O)[C@H]3C[C@@H]12 [Tetracycline],MIC,H. influenzae [1]; [8],2 mg/L
"O=C([O-])CCC(=O)[O-].O=c1[nH]c(=O)c2cc3cc(Br)cc(Br)c3[o+]c2[nH]1.O=c1[nH]c(=O)c2cc3cc(Br)cc(Br)c3[o+]c2[nH]1 [Compound 1b, 7,9-dibromo-2,4-dioxo-1,2,3,4-tetrahydrochromeno[2,3-d]-pyrimidinium-10 succinate]",MIC,B. subtilis,2.0 mg/L
same,MIC,[2],30.0 mg/L
same,MIC,M. lutteus,2.0 mg/L
same,MIC,S. mitis,2.0 mg/L
same,MIC,U. urealyticum,20.0 mg/L
same,MIC,N. meningitides,20.0 mg/L
same,MIC,C. ulcerans,2.0 mg/L
same,MIC,H. influenzae [3],20.0 mg/L
same,MIC,B. cereus,4.0 mg/L
same,MIC,L. monocytogenes,4.0 mg/L
same,MIC,S pyogenes,2.0 mg/L
same,MIC,"S. aureus ATCC 29213; S. aureus ATCC 29213, Table 1",1.0 mg/L
"CC(=O)[O-].O=c1[nH]c(=O)c2cc3cc(Br)cc(Br)c3[o+]c2[nH]1 [Compound 1a, 7,9-dibromo-2,4-dioxo-1,2,3,4-tetrahydrochromeno[2,3-d]-pyrimidinium-10 acetate]",reduction of the number of bacteria capable of growth in biofilms,[4]; 24 hours,1000 times
same,Number of CFU,[4],4.0 ± 1.0 × 10^5 CFU
same,"Eradication, %",S. pyogenes; day 4,94.37%
same,"Eradication, %",S. pyogenes; day 8,95.77%
same,"Eradication, %",S. pyogenes; day 14,95.77%
same,"Eradication, Number of patients",S. pyogenes; day 4,67
same,"Eradication, Number of patients",S. pyogenes; day 8,68
same,"Eradication, Number of patients",S. pyogenes; day 14,68
same,MIC,B. subtilis,1.0 mg/L
same,MIC,[2],20.0 mg/L
same,Mice death,[5]; [9],1
same,Mice death,[5]; [10],1
same,Mice death,"[5]; 10 mg/kg orally 2 times a day, day 5",2
same,Mice death,"[5]; 10 mg/kg orally 2 times a day, day 6",1
same,Mice death,[5]; [11],1
same,Mice death,[5]; [12],1
same,Mice death,"[5]; 20 mg/kg orally 2 times a day, day 5",2
same,MIC,M. lutteus,1.0 mg/L
same,MIC,S. mitis,0.1 mg/L
same,MIC,S. aureus SA85,1.0 mg/L
same,MIC,S. aureus SA77,0.5 mg/L
same,MIC,S. aureus VT-A-199,1.0 mg/L
same,MIC,S. aureus VT-E-25,1.0 mg/L
same,MIC,S. aureus VT-V-18,0.5 mg/L
same,MIC,S. aureus VT-P-82,2.0 mg/L
same,MIC,U. urealyticum,10.0 mg/L
same,MIC,N. meningitides,10.0 mg/L
same,MIC,C. ulcerans,0.5 mg/L
same,Resistance,[6],Not detected
same,efficacy on methicillin/vancomycin-resistant versus susceptible strains,[6],did not differ
same,"Eradication, %","S. aureus; day 4, enterally twice a day",85.14%
same,"Eradication, %",S. aureus; day 8,91.89%
same,"Eradication, %",S. aureus; day 14,94.59%
same,"Eradication, Number of patients","S. aureus; day 4, enterally twice a day",63
same,"Eradication, Number of patients",S. aureus; day 8,68
same,"Eradication, Number of patients",S. aureus; day 14,70
same,MIC,H. influenzae [1],10.0 mg/L
same,MIC,H. influenzae [3],10.0 mg/L
same,MIC,B. cereus,1.0 mg/L
same,MIC,L. monocytogenes,1.0 mg/L
same,MIC,S pyogenes,0.1 mg/L
same,MIC,"S. aureus ATCC 29213; ATCC 29213, strain MSSA, Table 3",0.5 mg/L
same,MIC,"S. aureus ATCC 29213; S. aureus ATCC 29213, Table 1",0.5 mg/L
CCC[C@@H]1C[C@@H](C(=O)N[C@@H]([C@H]2O[C@H](SC)[C@H](O)[C@@H](O)[C@H]2O)[C@@H](C)O)N(C)C1 [Lincomycin],change of the number of CFUs in biofilms,[4]; 24 hours,does not change the number of CFUs
same,Number of CFU,[4],2.0 ± 1.0 × 10^8 CFU
same,effect on MRSA and VRSA strains,[7],no effect
same,Mice death,[5]; [9],2
same,Mice death,[5]; [10],1
same,Mices death,"[5]; 10 mg/kg orally 2 times a day, fifth day, head printed 1",2
same,Mices death,"[5]; 10 mg/kg orally 2 times a day, sixth day column, head printed 2",1
same,Mice death,[5]; [11],1
same,Mice death,[5]; [12],1
same,Mices death,"[5]; 20 mg/kg orally 2 times a day, fifth day, head printed 1",3
same,Mices death,"[5]; 50 mg/kg orally 2 times a day, day 3",1
same,Mices death,"[5]; 50 mg/kg orally 2 times a day, day 4",1
same,Mices death,"[5]; 50 mg/kg orally 2 times a day, fifth day, head printed 1",2
"CC1(C)S[C@@H]2[C@H](NC(=O)COc3ccccc3)C(=O)N2[C@H]1C(=O)O [Phenoxymethylpenicillin, reference compound]","Eradication, %",S. pyogenes; day 4,10.14%
same,"Eradication, %",S. pyogenes; day 8,11.59%
same,"Eradication, %",S. pyogenes; day 14,13.04%
same,"Eradication, Number of patients",S. pyogenes; day 4,7
same,"Eradication, Number of patients",S. pyogenes; day 8,8
same,"Eradication, Number of patients",S. pyogenes; day 14,9
same,"Eradication, %","S. aureus; day 4, enterally twice a day",4.11%
same,"Eradication, %",S. aureus; day 8,9.59%
same,"Eradication, %",S. aureus; day 14,13.70%
same,"Eradication, Number of patients","S. aureus; day 4, enterally twice a day",3
same,"Eradication, Number of patients",S. aureus; day 8,7
same,"Eradication, Number of patients",S. aureus; day 14,10
